Measurements as given in patent US12239641B2, “Methods of treating or preventing fibrosis in non-alcoholic fatty liver disease” (priority 2018, dated 2025).
Entries after “also recorded” stand apart in the source; their conditions may differ.

How the values were obtained:
[1] = compared with Yohimbine; cited from earlier work
[2] = system: Primary human hepatic stellate cells; test: 3D collagen gel contraction of hepatic stellate cells; assay type: cell-based; conditions: 6 hours
Source text: Primary human HSCs (huHSC) were isolated from wedge sections of liver tissue obtained from patients with no history of liver disease undergoing liver resection for colorectal metastasis in the Royal Free Hospital, with local Tissue act for patient benefit ethics approval. All the participants provided written informed consent in accordance with the Helsinki Declaration.
Cells isolation in brief: 10 g of total human liver tissue was digested with 0.01% Collagenase, 0.05% Pronase and 0.001% DNase I without performing perfusion. The homogenate was filtered through a 100 µm cell strainer (BD Biosciences) and the flow-through was centrifuged at 50×g for 2 minutes at 4° C. After washing the supernatant, gradient centrifugation was performed at 1400×g for 17 minutes at 4° C. using an 11.5% Optiprep gradient (Sigma-Aldrich Company Ltd.). Finally, the interface was collected and washed. […]
Human and rat HSCs were cultured within 3D collagen gels (Fibroblast-populated collagen lattices; FPCL). […] Gel areas were measured using ImageJ v1.49 software (US National Institutes of Health, Bethesda MD, USA, http://imagej.nih.gov/ij/).

ADRA2a = target: T1, ADRA2a (Homo sapiens, UniProt P08913); conditions: some affinity for all; cited from earlier work
T1 sequence (P08913 1-465): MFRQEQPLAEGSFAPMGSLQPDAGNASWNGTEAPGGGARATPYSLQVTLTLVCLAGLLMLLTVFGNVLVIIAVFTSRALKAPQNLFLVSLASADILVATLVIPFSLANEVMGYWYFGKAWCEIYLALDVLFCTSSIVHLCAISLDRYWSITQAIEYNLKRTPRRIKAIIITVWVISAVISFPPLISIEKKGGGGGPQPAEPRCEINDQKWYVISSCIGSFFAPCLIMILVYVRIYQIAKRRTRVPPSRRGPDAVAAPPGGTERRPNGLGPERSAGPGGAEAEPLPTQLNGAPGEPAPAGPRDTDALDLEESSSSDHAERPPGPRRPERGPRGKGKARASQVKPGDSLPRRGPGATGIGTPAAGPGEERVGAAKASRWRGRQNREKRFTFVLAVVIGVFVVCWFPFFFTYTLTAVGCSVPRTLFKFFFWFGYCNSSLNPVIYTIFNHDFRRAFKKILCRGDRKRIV

[3] = system: noradrenaline (Norepinephrine—NE); test: Noradrenaline levels (HPLC) in HFHC NASH rats; assay type: in vivo, Sprague Dawley rats; conditions: HFHC+YoHCl vs HFHC
Source text: (§1) Animals were studied after 16 weeks of feeding.

working memory = test: Working memory test in HFHC NASH rats; assay type: in vivo, Sprague Dawley rats; conditions: HFHC diet 16 weeks, Yohimbine for the last 8 weeks vs placebo
Source text: as §1
Working memory and behavioural testing was through standard psychometric assessments before termination, such as application of the Barnes Maze.

ADRA2A receptors = conditions: HFHC+YoHCl vs HFHC
Procedure: Sprague Dawley rats (240-300 g) were randomly divided into 3 groups (Standard diet, HFHC+placebo, HFHC+Yohimbine). The animals were kept under controlled temperature (20±2° C.) and light (lights on at 08:00-20:00). The standard diet was composed of the following energy sources: 67 g carbohydrates (70 kcal %), 4 g fat (10 kcal %), and 19 g protein (20 kcal %) per 100 g diet. The HFC diet contained 19 g carbohydrates (15 kcal %), 39 g fat (65 kcal %), 2 g cholesterol, and 27 g protein (20 kcal %) per 100 g diet. The study was performed in accordance with local and national guidelines for animal welfare and approved by the institutional Animal Ethics Committee.
Animals were studied after 16 weeks of feeding. Animals in the HFHC group were randomised after 8 weeks of feeding to either treatment with placebo or Yohimbine, in addition to their ongoing diets. Yohimbine Hydrochloride (Product Number Y3125, Sigma-Aldrich, Dorset, UK), an ADRA2A antagonist, was administered in the drinking water at a dosage of 0.4 mg/kg rat/day. In the placebo treated group, an equivalent volume of water was administered. The rats were weighed daily and the Yohimbine treatment weight adjusted.
At the end of 16 weeks of feeding, rats were exsanguinated and the blood and tissues harvested and stored at −80 C for subsequent analyses. […]

[4] = system: Genes involved in fibrogenesis (TIMP-1 and Collal), MMP2; test: Expression of genes involved in fibrogenesis in HFHC NASH rats; assay type: in vivo, Sprague Dawley rats
Source text: as §1

[5] = system: rat model of NASH induced by a high fat high cholesterol (HFHC) diet; test: Rat model of NASH induced by HFHC diet: liver weight, fat, AST, histology scores, fibrosis; assay type: in vivo, Sprague Dawley rats
Source text: as §1

[6] = system: cytokines and chemokines (Cx3CL1, CxCL5, CCL3); test: Cytokines and chemokines (ELISA) in HFHC NASH rats; assay type: in vivo, Sprague Dawley rats
Source text: as §1

[7] = HFHC model, Yohimbine therapy for 8 weeks, p=0.03
[8] = H&E liver, HFHC+YoHCl (n=9) vs HFHC (n=6), 8 weeks treatment

Structure (SMILES): COC(=O)[C@@H]1[C@H]2C[C@H]3c4[nH]c5cc(O)ccc5c4CCN3C[C@@H]2CC[C@@H]1O [11-OH Yohimbine]
- half life [1]: longer half life
- oral bioavailability [1]: better oral bioavailability

Structure (SMILES): CC1c2ccccc2CN1CC1=NCCN1 (stereo not shown) [BRL44408]
- contraction in a 3D collagen gel ([2]; 5 uM Guanfacine and 5 uM BRL44408 vs guanfacine alone): less contraction

Structure (SMILES): N=C(N)NC(=O)Cc1c(Cl)cccc1Cl [Guanfacine]
- contraction in a 3D collagen gel ([2]; 5 uM Guanfacine vs serum free medium): significantly greater contraction

Structure (SMILES): COC(=O)[C@H]1[C@H]2C[C@H]3c4[nH]c5ccccc5c4CCN3C[C@H]2CC[C@@H]1O [Rauwolscine]
- selectivity among ADRA2 subtypes (ADRA2a): most selective for ADRA2a

Structure (SMILES): COC(=O)[C@@H]1[C@H]2C[C@H]3c4[nH]c5ccccc5c4CCN3C[C@@H]2CC[C@@H]1O [Yohimbine]
- Levels of noradrenaline (NE) [3]: further but non-statistical increase
- working memory (working memory): significantly improved; also recorded: improves
- ADRA2A receptor expression in liver tissue (ADRA2A receptors): does not significantly reduce
- Collal gene expression [4, 7]: significantly (p=0.03 for both) reduced
- TIMP-1 gene expression [4, 7]: significantly (p=0.03 for both) reduced
- MMP2 expression ([4]; HFHC rats, Yohimbine hydrochloride therapy): reduced
- selectivity among ADRA2 subtypes (ADRA2a): most selective for ADRA2a
- hepatic inflammation score [5, 8]: significant reduction
- hepatic steatosis score [5, 8]: significant reduction
- hepatocyte ballooning score [5, 8]: significant reduction
- non-alcoholic fatty liver disease (NAFLD) activity score (NAS) [5, 8]: significant reduction
- fibrosis (Picro sirius red stained liver) ([5]; HFHC NASH rats with Yohimbine vs without treatment): visually decreased
- Collagen proportionate area (CPA) ([5]; HFHC NASH rats with Yohimbine vs without treatment, n=6 per group, HFHCD vs HFHCD_YoHCl p=0.016): reduced
- liver fat ([5]; HFHC diet 16 wks, Yohimbine for last 8 weeks): reduced
- Liver-body weight ratio ([5]; HFHC diet 16 wks, Yohimbine for last 8 weeks, 0.4 mg/kg rat/day in drinking water, HFHCD vs HFHCD_YoHCl p=0.014): restored
- AST (liver injury) ([5]; HFHC rats after 8 weeks of Yohimbine therapy, HFHCD vs HFHCD_YoHCl p=0.007): decreased
- CCL3 protein expression ([6]; HFHC+YoHCl (8 weeks) vs HFHC): decrease markedly
- Cx3CL1 protein expression ([6]; HFHC+YoHCl (8 weeks) vs HFHC): decrease markedly
- CxCL5 protein expression ([6]; HFHC+YoHCl (8 weeks) vs HFHC): decrease markedly
- cytokines and chemokines (liver and systemic inflammation) ([6]; HFHCD_YoHCl vs HFHCD, 16 weeks diet): reduced liver and systemic inflammation
